Series [1] deals with adult female Sprague-Dawley rats. Briefly: rat infusion study: pedal withdrawal reflex PWR = 1 (analgesic effect). Type of series: in vivo. Conditions: for minimal effective dose: Rattus norvegicus, iv, total drug administered to achieve PWR = 1, i.v. infusion; for PWR = 1 Dose, head-to-head ratio to ketamine / PWR = 1 Time, head-to-head ratio to ketamine: ratio compound/ketamine; for PWR = 1 Time: time from onset of i.v. infusion to PWR = 1. The method, then: (§1) All animal experiments were conducted at the Ruakura Research Centre, Hamilton, New Zealand, using experimental protocols reviewed and approved by the Ruakura Animal Ethics Committee (ethics ref 12604).
(§2) Following acquisition of baseline physiologic parameters (heart rate, respiratory rate, PWR, and righting reflex (RR)) adult female Sprague-Dawley rats of approximately 350-450 g were put under non-traumatic restraint and the marginal vein of the tail was cannulated. Ketamine or a compound of the invention at 10 mg/ml was administered via a minibore extension tube adequately secured to the tail. Infusions were commenced at a rate (weight-adjusted) to deliver 20 mg/kg/min initially (until the pedal withdrawal reflex score PWR=1), then were reduced to a rate of 6.7 mg/kg/min. Infusion rate was then titrated in an up-and-down fashion to maintain dorsal recumbency and a PWR=1 to 10 minutes before cessation. Three rats were used in each study, with each group of rats also acting as their own ketamine control. The order of study drug administration was determined by prior odds/evens randomisation with a recovery interval of at least one hour afforded between experiments. PWR and RR were recorded at 1 minute intervals throughout. The times from cessation of infusion to return of righting reflex (RRR), and from cessation of infusion to the animals displaying independent locomotion (walk) were recorded.
Pedal Withdrawal Reflex (PWR) Scoring:
Nociceptive testing in animals was conducted via 1 second application of constant pressure (firm digital pressure) over the forepaw of the animal. Pedal withdrawal reflex testing is primarily used to assess analgesic effect, and responses are graded accordingly: 0, absent; 1, flicker; 2, moderate withdrawal; 3, fast withdrawal; 4, Fast withdrawal with cry/preceding apnoea (modified from Buitrago, S. et al. J. Amer. Assoc. Lab. Animal. Sci. 2008, 47, 11-17).

Series [2] has the same test system. Kind of series: rat infusion study: loss/recovery of righting reflex and walk (anaesthetic effect). Conditions: for minimal effective dose: Rattus norvegicus, iv, total drug administered to achieve loss of righting reflex, i.v. infusion, read-out: LRR Dose; for LRR Dose, head-to-head ratio to ketamine / LRR Time, head-to-head ratio to ketamine / RRR Time, head-to-head ratio to ketamine / Walk Time, head-to-head ratio to ketamine: ratio compound/ketamine; for Walk Time: time from end of infusion to independent locomotion; for RRR Time: time from end of infusion to recovery of righting reflex; for LRR Time: time from onset of i.v. infusion to loss of righting reflex, 20 mg/kg/min initially; for potency (in words) / recovery (in words): rat infusion study, discussion. In kind it is in vivo. As for the experimental part:
as §1, §2
Loss of Righting Reflex (LRR):
This is primarily used to assess anaesthetic hypnotic effect. Righting reflex is judged absent when the rat fails to right from a position of dorsal recumbency to a position of sternal recumbency on three attempts performed in rapid succession. Dose to LRR is termed effective potency.

The conditions of series [3]: pharmacological, analgesic and anaesthetic properties; cited from earlier work.
The test system of series [4] is adult female Sprague-Dawley rats. Briefly: rat infusion study: loss/recovery of righting reflex and walk (anaesthetic effect). In kind it is in vivo. Conditions: exploratory, mostly single-animal evaluations.

The compound `CCOC(=O)CCCNC1(c2ccccc2Cl)CCCCC1=O.Cl` (racemic) [rac-C3Et, Ethyl 4-((1-(2-chlorophenyl)-2-oxocyclohexyl)amino)butanoate Hydrochloride] registered a melting point of 186 to 189 °C. Further, in series [1], the minimal effective dose came to 44 ± 5 mg/kg; the “PWR = 1 Dose, head-to-head ratio to ketamine” value was 1.83; the “PWR = 1 Time, head-to-head ratio to ketamine” value was found to be 1.80; the “PWR = 1 Time” value amounted to 137 ± 14 s. In addition, in series [2], the minimal effective dose amounted to 24 ± 2 mg/kg; the “LRR Dose, head-to-head ratio to ketamine” value is 1.41; the “LRR Time, head-to-head ratio to ketamine” value is reported as 1.19; the “RRR Time, head-to-head ratio to ketamine” value was 0.062. In series [2], the “Walk Time, head-to-head ratio to ketamine” value came to 0.08; the “Walk Time” value came to 170 ± 17 s; the “RRR Time” value was 95 ± 12 s; the “LRR Time” value came to 70 ± 6 s.
Compound `CC(C)OC(=O)CCCNC1(c2ccccc2Cl)CCCCC1=O.Cl` (racemic) [rac-C3iPr, Isopropyl 4-((1-(2-chlorophenyl)-2-oxocyclohexyl)amino)butanoate hydrochloride] came in with a melting point of 167 to 169 °C. Further, in series [1], the minimal effective dose came out at 66 ± 17 mg/kg; the “PWR = 1 Dose, head-to-head ratio to ketamine” value is listed as 2.36; the “PWR = 1 Time, head-to-head ratio to ketamine” value worked out at 2.29; the “PWR = 1 Time” value was found to be 192 ± 47 s. Also, in series [2], the minimal effective dose was 42 ± 9 mg/kg; the “LRR Dose, head-to-head ratio to ketamine” value is given as 1.83; the “LRR Time, head-to-head ratio to ketamine” value is 1.81; the “RRR Time, head-to-head ratio to ketamine” value was 0.042. Further, in series [2], the “Walk Time, head-to-head ratio to ketamine” value was 0.08; the “Walk Time” value turned out to be 110 ± 45 s; the “RRR Time” value was 37 ± 22 s; the “LRR Time” value is 125 ± 21 s.
As for `CCOC(=O)CCCCNC1(c2ccccc2Cl)CCCCC1=O.Cl` (racemic) [rac-C4Et, Rac-Ethyl 5-((1-(2-chlorophenyl)-2-oxocyclohexyl)amino)pentanoate hydrochloride], the melting point was 169 to 172 °C. Besides, in series [1], the minimal effective dose was determined as 57 ± 12 mg/kg; the “PWR = 1 Dose, head-to-head ratio to ketamine” value is 2.48; the “PWR = 1 Time, head-to-head ratio to ketamine” value came out at 2.26; the “PWR = 1 Time” value turned out to be 172 ± 36 s. In addition, in series [2], the minimal effective dose turned out to be 34 ± 4 mg/kg; the “LRR Dose, head-to-head ratio to ketamine” value was 2.00; the “LRR Time, head-to-head ratio to ketamine” value came out at 1.73; the “RRR Time, head-to-head ratio to ketamine” value stood at 0.09. Also, in series [2], the “Walk Time, head-to-head ratio to ketamine” value stood at 0.05; the “Walk Time” value is 158 ± 22 s; the “RRR Time” value is 134 ± 22 s; the “LRR Time” value was 97 ± 8 s.
The compound `CC(C)OC(=O)CCCCNC1(c2ccccc2Cl)CCCCC1=O.Cl` (racemic) [rac-C4iPr, Isopropyl 5-((1-(2-chlorophenyl)-2-oxocyclohexyl)amino)pentanoate Hydrochloride] came in with a melting point of 161 to 163 °C. Also, in series [1], the minimal effective dose was 38 mg/kg; the “PWR = 1 Dose, head-to-head ratio to ketamine” value was 1.73; the “PWR = 1 Time, head-to-head ratio to ketamine” value is 1.85; the “PWR = 1 Time” value turned out to be 122 s. In series [2], the minimal effective dose came out at 38 mg/kg; the “LRR Dose, head-to-head ratio to ketamine” value worked out at 2.00; the “LRR Time, head-to-head ratio to ketamine” value is listed as 2.26; the “RRR Time, head-to-head ratio to ketamine” value was determined as 1.78. Besides, in series [2], the “Walk Time, head-to-head ratio to ketamine” value is 1.17; the “Walk Time” value came out at 320 s; the “RRR Time” value worked out at 180 s; the “LRR Time” value stood at 122 s.
Regarding `CC(C)OC(=O)CCN[C@@]1(c2ccccc2Cl)CCCCC1=O.Cl` [(R)-C2iPr, (R)-Isopropyl 3-((1-(2-chlorophenyl)-2-oxocyclohexyl)amino)propanoate Hydrochloride], the melting point lay in the range of 216 to 219 °C. Further, in series [1], the minimal effective dose stood at 82 mg/kg; the “PWR = 1 Dose, head-to-head ratio to ketamine” value is reported as 3.15; the “PWR = 1 Time, head-to-head ratio to ketamine” value came out at 2.75; the “PWR = 1 Time” value was determined as 190 s. Moreover, in series [2], the minimal effective dose was 71 mg/kg; the “LRR Dose, head-to-head ratio to ketamine” value is given as 2.96; the “LRR Time, head-to-head ratio to ketamine” value stood at 3.20; the “Walk Time, head-to-head ratio to ketamine” value is recorded as 0.06. Further, in series [2], the “Walk Time” value was determined as 900 s, the “RRR Time” value stood at 0 s and the “LRR Time” value came out at 170 s.
On to `CC(C)OC(=O)CCN[C@]1(c2ccccc2Cl)CCCCC1=O.Cl` [(S)-C2iPr, (S)-Isopropyl 3-((1-(2-chlorophenyl)-2-oxocyclohexyl)amino)propanoate hydrochloride], for which the melting point is 208 to 211 °C. For the same compound, in series [1], the minimal effective dose was 84 ± 4 mg/kg; the “PWR = 1 Dose, head-to-head ratio to ketamine” value worked out at 2.47; the “PWR = 1 Time, head-to-head ratio to ketamine” value is 3.14; the “PWR = 1 Time” value was 247 ± 13 s. Besides, in series [2], the minimal effective dose turned out to be 74 ± 9 mg/kg; the “potency (in words)” value is listed as “only half as potent”; the “recovery (in words)” value is “faster recoveries than the corresponding racemates”; the “LRR Dose, head-to-head ratio to ketamine” value was 2.46. Moreover, in series [2], the “LRR Time, head-to-head ratio to ketamine” value was found to be 3.41; the “RRR Time, head-to-head ratio to ketamine” value is listed as 0.02; the “Walk Time, head-to-head ratio to ketamine” value was determined as 0.19; the “Walk Time” value was found to be 224 ± 90 s. Further, in series [2], the “RRR Time” value is 15 ± 15 s and the “LRR Time” value worked out at 222 ± 18 s.
Take `CN[C@]1(c2ccccc2Cl)CCCCC1=O` [(S)-Ketamine]: in series [3], the “potency relative to the racemate” value is listed as “about twice as potent”.
For `CCOC(=O)CCN(C)C1(c2ccccc2Cl)CCCCC1=O` (stereo not shown) [compound 19, Ethyl 3-((1-(2-chlorophenyl)-2-oxocyclohexyl)(methyl)amino)propanoate], in series [1], the minimal effective dose worked out at 99 mg/kg; the “PWR = 1 Dose, head-to-head ratio to ketamine” value is listed as 3.96; the “PWR = 1 Time, head-to-head ratio to ketamine” value was 4.20; the “PWR = 1 Time” value amounted to 290 s. Moreover, in series [2], the minimal effective dose was 95 mg/kg; the “potency (in words)” value is recorded as “about as potent as the n-Pr norketamine esters”; the “recovery (in words)” value is recorded as “very rapid recovery”; the “LRR Dose, head-to-head ratio to ketamine” value turned out to be 4.50. Further, in series [2], the “LRR Time, head-to-head ratio to ketamine” value stood at 4.67; the “Walk Time” value amounted to 0 s; the “RRR Time” value is 0 s; the “LRR Time” value was 280 s. Moreover, the “sedative effect (in words)” value in series [4] is reported as “very weak sedative effect”.
As for `CCOC(=O)CCCN(C)C1(c2ccccc2Cl)CCCCC1=O.Cl` (stereo not shown) [compound 20, Ethyl 4-((1-(2-chlorophenyl)-2-oxocyclohexyl)(methyl)amino)butanoate Hydrochloride], in series [1], the minimal effective dose stood at 196 mg/kg; the “PWR = 1 Dose, head-to-head ratio to ketamine” value amounted to 6.76; the “PWR = 1 Time, head-to-head ratio to ketamine” value was determined as 6.98; the “PWR = 1 Time” value was 600 s. For the same compound, in series [2], the minimal effective dose was determined as 196 mg/kg; the “potency (in words)” value is recorded as “less potent”; the “LRR Dose, head-to-head ratio to ketamine” value came out at 7.84; the “LRR Time, head-to-head ratio to ketamine” value stood at 8.00. In series [2], the “Walk Time” value was 0 s, the “RRR Time” value is 0 s and the “LRR Time” value was found to be 600 s. In series [4], the “sedative effect (in words)” value was “weak sedative activity”.
With `COC(=O)CCCCN(C)C1(c2ccccc2Cl)CCCCC1=O` (stereo not shown) [compound 21, Methyl 5-((1-(2-chlorophenyl)-2-oxocyclohexyl)(methyl)amino)pentanoate], in series [1], the minimal effective dose came out at 148 mg/kg; the “PWR = 1 Dose, head-to-head ratio to ketamine” value worked out at 5.29; the “PWR = 1 Time, head-to-head ratio to ketamine” value came to 5.30; the “PWR = 1 Time” value was found to be 435 s. In series [2], the minimal effective dose is 145 mg/kg; the “potency (in words)” value is “less potent”; the “LRR Dose, head-to-head ratio to ketamine” value came to 7.25; the “LRR Time, head-to-head ratio to ketamine” value stood at 7.37. For the same compound, in series [2], the “Walk Time, head-to-head ratio to ketamine” value came to 0.09; the “Walk Time” value is 201 s; the “RRR Time” value was 0 s; the “LRR Time” value came to 420 s. The “sedative effect (in words)” value in series [4] was “weak sedative activity”.

Broadly, the melting point is the temperature, or range, at which the solid turns liquid.

The record behind these values is patent US10239825B2, “Ketamine derivatives” (Auckland Uniservices Limited, priority 2013, dated 2019).
